Results from patent publication US20250389714A1, “PHARMACEUTICAL COMPOSITION FOR TREATING DISEASES RELATED TO TAUOPATHY” (SEOUL NATIONAL UNIVERSITY R&DB FOUNDATION, priority 2021, published 2025).
Entries after “also recorded” stand apart in the source; their conditions may differ.

How the values were obtained:
[1] = test system: RAGE-expressing SH-SY5Y cells; experiment: Tau infection (intracellular DyLight 488-tau oligomers) in RAGE-expressing SH-SY5Y cells; format: cell-based, human; settings: increasing concentrations of antagonist, 4 hours, 500 nM DyLight 488-tau oligomers
Protocol: (right) for 4 hours in the presence of 500 nM DyLight 488-tau or 125 nM FITC-Aβ42 oligomers. Fluorescence images were acquired, and intracellular DyLight 488 and FITC intensities were measured. The data were presented as mean±SEM (n=4).

[2] = test system: primary cortical neurons or hippocampal neurons; experiment: Tau infection assay in primary cultured neurons; settings: 500 nM DyLight 488-tau oligomers, 24 hours
rTg4510 mice = experiment: Behavioral tests (Y-maze, novel object recognition, passive avoidance) in rTg4510 mice; format: in vivo, mouse; settings: 1 mg/kg/day intraperitoneally, daily for 2.5 months from 2 months of age; tests at 4.5 months
RAGE = biological target: T1, RAGE (Homo sapiens, UniProt Q15109); experiment: Cell binding assay and calculation of dissociation constant (Kd) for RAGE binding; settings: monomer equivalents of total Aβ42 or total tau; biotin-labeled oligomers, RAGE-overexpressing SH-SY5Y cells, 2 hours
T1 construct: RFP-tagged RAGE full-length (FL) or cytoplasmic domain deletion mutants (ΔCyto); expressed in transfected cells; host or cells: SH-SY5Y human neuroblastoma cells
T1 sequence (Q15109 23-404): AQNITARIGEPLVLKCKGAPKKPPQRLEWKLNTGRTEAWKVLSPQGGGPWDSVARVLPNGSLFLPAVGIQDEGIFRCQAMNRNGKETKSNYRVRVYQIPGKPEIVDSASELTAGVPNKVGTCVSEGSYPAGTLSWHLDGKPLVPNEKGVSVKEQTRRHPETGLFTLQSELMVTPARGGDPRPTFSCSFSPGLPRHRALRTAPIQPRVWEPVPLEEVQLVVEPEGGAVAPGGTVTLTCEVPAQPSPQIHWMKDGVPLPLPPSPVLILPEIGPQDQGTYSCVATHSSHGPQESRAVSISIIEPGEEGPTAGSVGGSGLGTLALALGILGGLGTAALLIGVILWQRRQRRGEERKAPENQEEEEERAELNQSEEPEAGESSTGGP
Protocol: FIG. 2c is a graph showing the results of analyzing RAGE binding affinities of tau oligomers (oTau) and Aβ42 oligomers (oAβ42). RAGE-overexpressing SH-SY5Y cells were treated with biotin-tau or Aβ42 oligomers for 2 hours, and the cell-bound biotin signal intensities in FIG. 12a were measured. The data were presented as mean±SEM (n=3-5), and the Kd of binding values were obtained from nonlinear regression analysis of saturated binding.
The purified tau monomers of the present invention were biotinylated using the Ez-Link Sulfo-NHS-LC-Biotinylation kit (Thermo Scientific) and then fibrillated as described above to form oligomers and fibrils. SH-SY5Y cells were transfected with RAGE cDNA for 24 hours and incubated with biotin-tau protein for 2 hours. Primary cortical neurons from WT and Rage KO mice (DIV 7) were then incubated with various concentrations of biotin-tau oligomers for 24 hours to estimate the Kd value for tau binding to RAGE. Cells were washed with Tris-buffered saline (TBS) and fixed with 4% paraformaldehyde for 20 min. The cells were then blocked with 10% FBS and 0.1% Triton X-100 in TBS for 1 hour and incubated with streptavidin-alkaline phosphatase conjugate (1:2000, Roche) at 4° C. for 16 hours. After washing with TBS, bound biotin-tau was visualized for 10 min using the […] liquid substrate system (Sigma-Aldrich). Images were acquired using INCell Analyzer 2000, and cell-bound biotin signals were measured using Image J. Kd values estimated for RAGE-binding were obtained from nonlinear regression analysis of saturated binding using Prism (GraphPad Software).

[3] = biological target: human RAGE (receptor for advanced glycation end products), full-length, overexpressed in SH-SY5Y cells (human) (UniProt Q15109); experiment: cell-based or functional assay
Chain of human RAGE (receptor for advanced glycation end products), full-length, overexpressed in SH-SY5Y cells (human) (Q15109 23-404): as above

[4] = test system: RAGE-overexpressing SH-SY5Y cells; experiment: Competition of tau oligomers and Aβ42 oligomers for uptake in RAGE-overexpressing SH-SY5Y cells; format: cell-based, human; settings: increasing concentrations of DyLight 594-tau oligomers with 125 nM FITC-Aβ42 oligomers, 2 hours
Protocol: FIG. 12b is a graph showing the results of analyzing […] and FITC intensities in RAGE-overexpressing SH-SY5Y cells. The cells were treated with increasing concentrations of DyLight 594-tau oligomers (red) in the presence of 125 nM FITC-Aβ42 oligomers (green) for 2 hours. Fluorescence images were acquired, and intracellular DyLight 594 and FITC intensities were measured. The data were presented as mean±SEM (n=3).

[5] = biological target: T2, high molecular weight (HMW, 10-20 units) tau oligomers of 6xHis tagged human 0N4R tau (human, UniProt P10636-6 1-383, biotinylated or labelled with DyLight 488, depending on the assay; sites not stated); experiment: cell binding assay: biotin-labelled HMW tau oligomers for 24 h on primary cortical neurons, streptavidin-alkaline phosphatase, BCIP/NBT; nonlinear regression of saturation binding; dashed ΔRage curve, whose points equal WT minus Rage KO; concentration as tau monomer equivalent
T2 construct: also called HMW tau oligomers; not shown: 6xHis tag from the pET-His vector
T2 sequence (P10636 other isoform, or with tags, fused parts or gaps): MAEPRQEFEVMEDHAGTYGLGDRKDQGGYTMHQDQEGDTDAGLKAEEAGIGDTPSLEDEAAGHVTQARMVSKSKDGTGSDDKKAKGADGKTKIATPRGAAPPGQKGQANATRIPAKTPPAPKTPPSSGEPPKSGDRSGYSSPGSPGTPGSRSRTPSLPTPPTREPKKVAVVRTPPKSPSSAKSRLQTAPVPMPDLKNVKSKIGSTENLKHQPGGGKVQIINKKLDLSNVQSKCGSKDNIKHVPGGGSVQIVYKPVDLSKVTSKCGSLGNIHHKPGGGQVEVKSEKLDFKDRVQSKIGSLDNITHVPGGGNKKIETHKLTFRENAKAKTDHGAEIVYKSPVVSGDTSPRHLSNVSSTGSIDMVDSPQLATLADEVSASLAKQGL

[6] = biological target: T3, low molecular weight (LMW, 2-4 units) tau oligomers of 6xHis tagged human 0N4R tau (human, UniProt P10636-6 1-383, biotinylated or labelled with DyLight 488, depending on the assay; sites not stated); experiment: cell binding assay: biotin-labelled LMW tau oligomers for 24 h on primary cortical neurons, streptavidin-alkaline phosphatase, BCIP/NBT; nonlinear regression of saturation binding; dashed ΔRage curve, whose points equal WT minus Rage KO; concentration as tau monomer equivalent
T3 construct: also called LMW tau oligomers; not shown: 6xHis tag from the pET-His vector
T3 sequence (P10636 other isoform, or with tags, fused parts or gaps): as above

In the case of `O=C(c1ccc(Cl)cc1)N(Cc1ccccc1)C1CCCCC1` [FPS-ZM1], the “tau infection into RAGE-expressing SH-SY5Y cells” value [1] is reported as “inhibited tau infection”, the “tau infection into neurons” value ([2]; WT cortical neurons, 1 μM antagonist) is reported as “inhibited tau infection; also recorded: reduces neuronal tau infection” and the “cognitive function (spatial and working memory) of rTg4510 mice” value (rTg4510 mice) is reported as “significantly alleviated cognitive impairment; also recorded: significant retention of spatial and working memory; also recorded: ameliorated the behavioral impairment”.

“Aβ42 oligomers: oligomers prepared from synthetic biotin- or FITC-labeled Aβ42 peptide (rPeptide)” showed a Kd (RAGE) of 17 nM.

“DyLight 488-tau aggregates (His-tagged human tau aggregated with heparin, used in the cDNA screen) (from UniProt P10636 1-383) (ligand)” was tested, and the Intracellular DyLight 488 Intensities (AU) [3] was 9.55 AU.

“HMW tau oligomers: high molecular weight tau oligomers (10-20 units) of recombinant human 0N4R tau” was tested, and the Kd (RAGE) was 51 nM.

“LMW tau oligomers: low molecular weight tau oligomers (2-4 units) of recombinant human 0N4R tau” gave a Kd (RAGE) of 205 nM.

heparin was tested, and the “tau oligomer transfection into Rage KO neurons” value ([2]; Rage KO neurons, 15 U/ml heparin) was “efficiently blocked” and the “neuronal uptake of tau oligomers into WT neurons” value ([2]; WT neurons, 15 U/ml heparin) was “reduced neuronal uptake of tau oligomers”.

“tau oligomers: oligomers of recombinant 6×His tagged human 0N4R tau formed with heparin” was tested, and the “intracellular transfection of Aβ42 oligomers” value [4] was “efficiently reduced the intracellular transfection of Aβ42 oligomers”.

B1: mouse RAGE, endogenous, on primary cultured WT mouse neurons (against Rage KO neurons) (receptor, UniProt Q62151 23-402, looked up)
chain: GQNITARIGEPLVLSCKGAPKKPPQQLEWKLNTGRTEAWKVLSPQGGPWDSVARILPNGSLLLPATGIVDEGTFRCRATNRRGKEVKSNYRVRVYQIPGKPEIVDPASELTASVPNKVGTCVSEGSYPAGTLSWHLDGKLLIPDGKETLVKEETRRHPETGLFTLRSELTVIPTQGGTHPTFSCSFSLGLPRRRPLNTAPIQLRVREPGPPEGIQLLVEPEGGIVAPGGTVTLTCAISAQPPPQVHWIKDGAPLPLAPSPVLLLPEVGHEDEGTYSCVATHPSHGPQESPPVSIRVTETGDEGPAEGSVGESGLGTLALALGILGGLGVVALLVGAILWRKRQPRREERKAPESQEDEEERAELNQSEEAEMPENGAGGP
notes: whole, on cells
B1 gave a Kd [5] of 25 nM and a Kd [6] of 43.5 nM.
